Patent publication US20230028441A1, “NOVEL HETEROARYL-TRIAZOLE COMPOUNDS AS PESTICIDES” (Bayer Aktiengesellschaft, priority 2019, published 2023)

Key:
Assay type in all cases: in vivo
[1] = system: cattle tick larvae (Rhipicephalus microplus), strain Parkhurst, resistant against synthetic pyrethroids; assay: Rhipicephalus (Boophilus) microplus in-vitro contact test, larval cattle tick; details: 5 μg/cm^2 (=500 g/ha), after 48 hours, read-out: efficacy (larvae dead or moribund)
In short: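 Efficacy, 100% meaning all larvae dead or moribund, was judged at 48 h from loss of negative geotactic climbing. Larvae of the Parkhurst strain, 20–50 per tube, were exposed at 27° C and 85% humidity to acetone-coated tube surfaces; 900 ppm corresponded to 5 μg/cm^2.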

[2] = system: adult engorged female ticks (Rhipicephalus microplus); assay: Rhipicephalus (Boophilus) microplus injection test; details: 168 h, 4 μg/animal, egg deposition after 7 days, read-out: efficacy (infertile eggs)
In short: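 Efficacy is the share of infertile eggs: 100% means none are fertile, 0% means all are fertile. Egg deposition was checked 7 days after injecting 1 μL of DMSO-diluted compound into the abdomen of five engorged female R. microplus, with doubtful eggs kept about 42 days to hatching. The stock was 10 mg in 0.5 mL DMSO.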

[3] = system: adult cat fleas (Ctenocephalides felis); assay: Ctenocephalides felis in-vitro contact test, adult cat flea; details: 5 μg/cm^2 (=500 g/ha), after 48 hours, read-out: efficacy (fleas dead or moribund)
In short: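 Efficacy (%) counts fleas that are dead or moribund, meaning unable to escape heat (45-50 °C, ≤5 min) by climbing. Scoring was done 48 h after 5-10 adults were placed at room temperature in glass tubes. The tubes carried a dried acetone film of compound, 5 μg/cm^2 at 900 ppm.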

[4] = system: adult unfed cat fleas (Ctenocephalides felis); assay: Ctenocephalides felis oral test; details: 48 h, 100 ppm in cattle blood, after 2 days
In short: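 Percent flea mortality recorded at 2 days. Compound was dissolved in dimethyl sulfoxide and diluted into cattle blood, which ~20 unfed adult cat fleas ingested through parafilm from a 37°C-heated chamber, their own chamber kept at room temperature.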

[5] = system: larvae of the banded cucumber beetle (Diabrotica balteata); assay: Diabrotica balteata spray test; details: 168 h, 100 g/ha (=32 μg/well), after 7 days, wheat seeds, read-out: efficacy (seedlings grown up)
In short: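 Efficacy (%) read at day 7: 100% means seedlings grew like untreated, uninfested controls; 0% means no seedlings grew. Wheat seeds germinated 1 day on agar, sprayed with emulsified compound solution (1000 ppm emulsifier in water), then each well infested with 10-20 larvae.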

[6] = system: green peach aphid (Myzus persicae); assay: Myzus persicae oral test; details: 120 h
In short: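 Readout: % mortality at day 5, where 100% = all aphids dead and 0% = none dead. Feeding via parafilm membrane over compound in IPL41 medium (33%+15% sugar); mixed-age population. Stock in acetone (1:100 w/w), water-diluted.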

[7] = system: fall armyworm larvae (Spodoptera frugiperda); assay: Spodoptera frugiperda spray test (maize leaf sections); details: 168 h
In short: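 Percent kill of Spodoptera frugiperda larvae was recorded 7 days after infesting dried, treated maize leaf sections. Spray solutions were made from an acetone/DMF compound preparation diluted with 1000 ppm emulsifier-containing water.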

[8] = system: caterpillars of the fall army worm (Spodoptera frugiperda); assay: Spodoptera frugiperda spray test (cotton leaves); details: 168 h
Method: Solvent: 14 parts by weight of dimethylformamide
Emulsifier: alkylaryl polyglycol ether
(§1) To produce a suitable preparation of active compound, 1 part by weight of active compound is mixed with the stated amount of solvent and is diluted with water, containing an emulsifier concentration of 1000 ppm, to the desired concentration. Further test concentrations are prepared by dilution with emulsifier containing water. Ammonium salt and/or penetration enhancer in a dosage of 1000 ppm are added to the desired concentration if necessary.
Cotton leaves (Gossypium hirsutum) are treated by being sprayed with the preparation of the active compound of the desired concentration and are infested with caterpillars of the fall army worm (Spodoptera frugiperda).
After 7 days mortality in % is determined. 100% means all the caterpillars have been killed and 0% means none of the caterpillars have been killed.

[9] = system: larvae of the southern green stink bug (Nezara viridula); assay: Nezara viridula spray test; details: in Hordeum vulgare, 96 h
In short: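 Percent mortality of southern green stink bug larvae read 4 days after spraying infested Hordeum vulgare. Test solutions: compound in acetone plus dimethylformamide, diluted with emulsifier-containing water (1000 ppm alkylarylpolyglycol ether).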

[10] = system: adult brown dog ticks (Rhipicephalus sanguineus); assay: Rhipicephalus sanguineus in-vitro contact test with adult brown dog ticks; details: after 48 hours, read-out: efficacy (ticks dead or moribund); for pest or weed control at 1 µg/cm2, 100 g/ha: 1 μg/cm^2 (=100 g/ha); for pest or weed control at 5 µg/cm2, 500 g/ha: 5 μg/cm^2 (=500 g/ha)
In short: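 Efficacy is the percentage of adult ticks dead or moribund, meaning immotile or uncoordinated and unable to escape 45-50° C. heat within 5 min. Read 48 h after 5-10 ticks were enclosed at room temperature in acetone-coated glass tubes. Dose 5 μg/cm^2, from a 900 ppm coating solution.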

[11] = system: green peach aphid (Myzus persicae); assay: Myzus persicae spray test; details: foliar, 120 h, 100 g/ha, after 5 days, Chinese cabbage leaf disks
Method: Solvent: 78.0 parts by weight acetone • 1.5 parts by weight dimethylformamide
Emulsifier: alkylarylpolyglycol ether
as §1, with “solvents” for “solvent”, “water.” for “water. Ammonium salt and/or penetration enhancer in a dosage of 1000 ppm are added to the desired concentration if necessary.”
Chinese cabbage (Brassica pekinensis) leaf disks infected with all instars of the green peach aphid (Myzus persicae), are sprayed with a preparation of the active ingredient of the desired concentration.
After 5 days mortality in % is determined. 100% means all aphids have been killed and 0% means none of the aphids have been killed.

[12] = system: brown planthopper (Nilaparvata lugens); assay: Nilaparvata lugens spray test; details: in Oryza sativa, 96 h
In short: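 Rice plants (Oryza sativa) sprayed with compound in acetone/DMF diluted in water containing 1000 ppm alkylarylpolyglycol ether emulsifier, then infested with planthoppers. Mortality % scored after 4 days (100% = all killed, 0% = none killed).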

Compound	pest or weed control at 5 µg/cm2 [1] [%]	pest or weed control at 0.004 mg [2] [%]	pest or weed control at 5 µg/cm2 [3] [%]	mortality at 100 ppm [4] [%]	pest or weed control at 32 µg/disc, 100 g/ha [5] [%]	mortality at 4 ppm [6] [%]	mortality at 100 g/ha [7] [%]	mortality at 20 ppm [8] [%]	mortality at 500 g/ha [9] [%]	pest or weed control at 1 µg/cm2, 100 g/ha [10] [%]	pest or weed control at 5 µg/cm2, 500 g/ha [10] [%]	mortality at 100 g/ha [11] [%]	mortality at 500 g/ha [12] [%]
CC(NC(=O)c1cc(F)cc(C#N)c1)c1nc(N)nn1-c1ncccn1 (stereo not drawn) [I-105]	100	100	100	100	100	100	100	100	–	–	–	–	–
CC(NC(=O)c1cc(Cl)cc(OC(F)(F)F)c1)c1nc(N)nn1-c1ccc(C#N)cn1 (stereo not drawn) [I-118]	100	100	90	100	100	100	100	100	100	–	–	–	–
CNc1nc([C@H](C)NC(=O)c2cc(Cl)cc(OC(F)(F)F)c2)n(-c2ncccn2)n1 [I-129]	100	–	100	–	100	–	100	100	100	80	80	90	90
C[C@H](NC(=O)c1cc(Br)cc(OC(F)(F)F)c1)c1nc(N(C)C)nn1-c1ncccn1 [I-139]	100	–	100	–	100	–	100	100	100	80	100	–	100
C[C@H](NC(=O)c1cc(Br)cc(Br)c1)c1nc(N(C)C)nn1-c1ncccn1 [I-140]	100	–	100	–	100	–	100	100	90	100	100	90	90
CON(C)c1nc([C@H](C)NC(=O)c2cc(OC(F)(F)F)cc(C3CC3)c2)n(-c2ncccn2)n1 [I-152]	–	–	–	–	100	–	100	100	100	–	–	90	100
C[C@H](NC(=O)c1cc(OC(F)(F)F)cc(C2CC2)c1)c1nc(N)nn1-c1ccc(C#N)cn1 [I-154]	100	–	100	–	100	–	100	100	100	80	80	–	–
